Experimental data published in paper PMC8305101, “Synthesis and Cytotoxicity Evaluation of Spirocyclic Bromotyrosine Clavatadine C Analogs” (Marine Drugs, 2021).
Several values for one entry are separate records, joined by “and”; a condition that tells them apart may be missing. Identical values can stand only once. Counter-ions that a name gives are not always drawn. Like-named read-outs stand apart in the source and are kept apart here.

Columns and labels:
[1] = system: Mel-Juso melanoma cell line; parameters: method as in PMID 32228987; settings: Mel-Juso melanoma cells; cited from earlier work
[2] = system: SKMel-147 melanoma cell line; parameters: method as in PMID 32228987; settings: SKMel-147 melanoma cells; cited from earlier work
[3] = system: Malme-3M melanoma cell line; parameters: method as in PMID 32228987; settings: Malme-3M melanoma cells; cited from earlier work
[4] = system: breast cancer cell line MCF-7; parameters: method as in PMID 32228987; settings: MCF-7 breast cancer cells; cited from earlier work
[5] = Cytotoxicity in Hs27 normal skin fibroblasts (CellTiter-Glo ATP viability); assay type: cell-based; settings: human, 48-h incubation, mean (SD) of 2–3 independent experiments in triplicate
Method: (§1) Analysis of selectivity to cancer cells. The cells were seeded to white frame and clear bottom 96-well plates (Perkin Elmer) at a density of 10,000 cells/well for the human malignant melanoma A-375 cell line (ATCC CRL-1619) and 7500 cells/well for the human skin fibroblast Hs27 cell line (ATCC CRL-1634). The cells were grown at 37 °C, 5% CO2 until they reached 70–80% confluence (approximately 24 h). Stock solutions of test compounds and a positive control (camptothecin, Sigma-Aldrich, St. Louis, MO, USA) were prepared in DMSO and diluted into the assay medium (growth medium with 5% FBS) to the final concentration. Final DMSO concentration was 0.5% in all samples. The culture medium was removed from the plate and compounds added, 200 µL/well. After a 48-h incubation, the amount of ATP, which is directly proportional to the number of viable cells present in culture, was quantified using CellTiter-Glo® Luminescent Cell Viability kit (Promega, Madison, WI, USA), according to manufacturer’s instructions. Origin Graphing and Analysis, version 9.55 (OriginLab, Northampton, MA, USA), was used for determination of CC50 values. The cancer cell selectivity index was calculated as a ratio of CC50 values between Hs27 fibroblasts and A-375 melanoma cells. Standard deviation of selectivity indices was calculated using Equation (1) (1) σ(x¯/y¯)=(σ(x)/x¯)^2+(σ(y)/y¯)^2

[6] = system: human malignant melanoma A-375 cell line; test: Cytotoxicity in A-375 melanoma cells (CellTiter-Glo ATP viability); assay type: cell-based; settings: for CC50 / cytotoxicity at 50 µM: Homo sapiens; for CC50: read-out: CC50 (µM) in A-375 Cells; for Selectivity Index (SI): ratio of CC50 values between Hs27 fibroblasts and A-375 melanoma cells, SD in parentheses
Method: as §1

[7] = system: caspases 3/7 in A-375 cells; test: Apoptosis induction assay, caspase-3/7 activity (ApoTox-Glo) in A-375 cells; assay type: cell-based, human; settings: 1 × CC50 concentration
Method: Apoptosis induction assay and imaging. A-375 cells were seeded to white 96-well plates and treated with compounds at 1 × CC50 concentration, 100 µL/well, following the procedure described above. After 24 and 48 h, caspase-3/7 activity was measured using the ApoTox-Glo kit (Promega) following the manufacturer’s instructions. The light microscopy images were taken using 4× phase contrast objective and Cytation5 automated imaging reader (Biotek).

[8] = system: MCF7 (breast) cancer cell line; parameters: method as in doi:10.1016/j.tetlet.2016.10.019; settings: cited from earlier work
[9] = system: A549 (lung) cancer cell line; parameters: method as in doi:10.1016/j.tetlet.2016.10.019; settings: cited from earlier work
[10] = system: MDA-MB-231 (breast) cancer cell line; parameters: method as in doi:10.1016/j.tetlet.2016.10.019; settings: cited from earlier work
[11] = read-out: CC50 (µM) in Hs27 Cells
[12] = A-375, 48 h, read-out: Primary Test Results (Cytotoxicity % at 50 µM in A-375 Cells), 50 µM, A-375 cells, 48-h incubation, single experiment with three technical replicates

Compound | CC50 at 48 h [5, 11] [µM] | CC50 ([6]; A-375, 48 h) [µM] | cytotoxicity at 50 µM [6, 12] [%] | Selectivity Index (SI) [6] | other results
COC1=C(Br)[C@H](O)[C@@]2(C=C1Br)CC(C(=O)NCC(O)COc1c(Br)cc(C(O)CNC(=O)C3=NO[C@]4(C=C(Br)C(OC)=C(Br)[C@@H]4O)C3)cc1Br)=NO2 (stereo partly shown) [isofistularin-3] |  |  |  |  | Effect on cell viability [1]: no significant decrease; Effect on cell viability [2]: no significant decrease; Effect on cell viability [3]: no significant decrease; Effect on cell viability [4]: reduced cell viability
CN(C)C(=O)C1=NOC2(C=CC(=O)C=C2)C1 [Compound 12, N,N-Dimethyl-8-oxo-1-oxa-2-azaspiro[4.5]deca-2,6,9-triene-3-carboxamide] | 3.8 | 2.1 | 95.1 | 1.8 (0.6) | 
Cn1nc(-c2ccc(Cl)cc2)cc1NC(=O)C1=NOC2(C=C(Br)C(=O)C(Br)=C2)C1 [Compound 41, 7,9-Dibromo-N-[3-(4-chlorophenyl)-1-methyl-1H-pyrazol-5-yl]-8-oxo-1-oxa-2-azaspiro[4.5]deca-2,6,9-triene-3-carboxamide] | 1.4 | 1.3 | 97.6 | 1.1 (0.8) | 
CC[C@@]1(O)C(=O)OCc2c1cc1n(c2=O)Cc2cc3ccccc3nc2-1 [Camptothecin, reference compound] |  |  |  | 70.9 (0.5) | CC50 at 48 h ([5]; Hs27 skin fibroblast cells): 3.6 µM; cytotoxicity at 50 µM ([6]; 50 µM, A-375 cells, 48-h incubation, single experiment with three technical replicates, read-out: Primary Test Results (Cytotoxicity % at 50 µM in A-375 Cells)): 94.7%; CC50 ([6]; A-375 cells, 48-h incubation, mean (SD) of 2–3 independent experiments in triplicate): 0.05 µM; Caspase 3/7 induction, fold change relative to DMSO-treated control ([7]; 24 h): ~20 fold; Caspase 3/7 induction, fold change relative to DMSO-treated control ([7]; 48 h): nearly fivefold
O=C1C=CC2(C=C1)CC(C(=O)Nc1cc(Cl)cc(Cl)c1)=NO2 [Compound 18, N-(3,5-Dichlorophenyl)-8-oxo-1-oxa-2-azaspiro[4.5]deca-2,6,9-triene-3-carboxamide] | 0.8 | 0.4 | 100 | 2.0 (0.8) | 
COc1ccc(CCNC(=O)C2=NOC3(C=CC(=O)C=C3)C2)cc1 [Compound 25, N-(4-Methoxyphenethyl)-8-oxo-1-oxa-2-azaspiro[4.5]deca-2,6,9-triene-3-carboxamide] | 2 | 1.2 | 100 | 1.7 (0.3) | 
O=C(Nc1nc2c(s1)CCCC2)C1=NOC2(C=C(Br)C(=O)C(Br)=C2)C1 [Compound 42, 7,9-Dibromo-8-oxo-N-(4,5,6,7-tetrahydrobenzo[d]thiazol-2-yl)-1-oxa-2-azaspiro[4.5]deca-2,6,9-triene-3-carboxamide] | 4.4 | 3.5 | 97.5 | 1.3 (0.5) | 
O=C1C=CC2(C=C1)CC(C(=O)NCCc1ccccn1)=NO2 [Compound 32, 8-Oxo-N-[2-(pyridin-2-yl)ethyl]-1-oxa-2-azaspiro[4.5]deca-2,6,9-triene-3-carboxamide] | 2.2 | 1.5 | 97.5 | 1.5 (0.9) | 
O=C(NNC(=O)c1ccccn1)C1=NOC2(C=C(Br)C(=O)C(Br)=C2)C1 [Compound 38, 7,9-Dibromo-8-oxo-N’-picolinoyl-1-oxa-2-azaspiro[4.5]deca-2,6,9-triene-3-carbohydrazide] | 6.4 | 12.3 | 93.5 | 0.5 (0.5) | 
O=C1C=CC2(C=C1)CC(C(=O)N1CCC(O)CC1)=NO2 [Compound 16, 3-(4-Hydroxypiperidine-1-carbonyl)-1-oxa-2-azaspiro[4.5]deca-2,6,9-trien-8-one] | 7.4 | 4.9 | 97.1 | 1.5 (0.2) | 
N=C(N)NCCCCNC(=O)C1=NOC2(C=C(Br)C(=O)C(Br)=C2)C1 [Compound 1-TFA, 7,9-Dibromo-N-(4-guanidinobutyl)-8-oxo-1-oxa-2-azaspiro[4.5]deca-2,6,9-triene-3-carboxamide] |  |  |  |  | Activity against MCF7 cancer cell line [8]: moderate activity; Primary Test Results (Cytotoxicity % at 50 µM in A-375 Cells) ([6]; 50 µM, A-375 cells, 48-h incubation, single experiment with three technical replicates): less than 25% and 0.5%; Activity against A549 cancer cell line [9]: moderate activity; Activity against MDA-MB-231 cancer cell line [10]: moderate activity
